Test results taken from US11155586B2, “Cystine knot scaffold platform” (Genentech, Inc., priority 2015, dated 2021).
Where two headings read alike, the source gives them in different places. Positions of bridges follow the written chain, without caps; N, C: chain ends. Residues, ends and D or L forms follow the SMILES beside them.

Assays:
hVEGF(8-109) = molecular target: T1, hVEGF(8-109) (Homo sapiens, UniProt P15692); assay: Spot phage ELISA; format: binding
T1 construct: hVEGF(8-109) or BSA were coated on 384-well MAXISORP™ immunoplates
T1 sequence (P15692 214-315): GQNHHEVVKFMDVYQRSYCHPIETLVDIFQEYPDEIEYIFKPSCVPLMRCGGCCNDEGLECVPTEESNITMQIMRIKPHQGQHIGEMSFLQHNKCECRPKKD
Outline: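 Clones counted positive when hVEGF(8-109) signal exceeded BSA background by over 3-fold, per spot ELISA using anti-M13-HRP/TMB detection. Phage came from overnight 37° C. cultures of individual clones picked after four binding rounds, supernatant diluted 1:3.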

hVEGF-A = molecular target: T2, hVEGF-A (Homo sapiens, UniProt P15692); assay: KDR-CHO VEGF assay to determine cellular IC50 (VEGF mediated Tyr phosphorylation of KDR); format: cell-based
T2 sequence (P15692 207-395): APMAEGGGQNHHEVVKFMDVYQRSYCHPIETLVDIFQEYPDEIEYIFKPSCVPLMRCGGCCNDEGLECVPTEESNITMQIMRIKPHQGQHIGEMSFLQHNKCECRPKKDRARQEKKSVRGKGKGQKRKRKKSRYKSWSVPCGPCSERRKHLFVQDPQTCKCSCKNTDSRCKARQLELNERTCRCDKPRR
Protocol: KDR-CHO cells (CHO cells stably transfected with gD tagged-KDR) were grown in cell growth medium (DMEM/Ham's F-12, 10% diafiltered FBS (GIBCO catalog no. 26400), 25 mM HEPES, 2 mM L-GLUTAMAX™). For VEGF stimulation assay, 5×10^4 cells/well were plated in 100 μl of cell plating medium (DMEM/Ham's F-12, 0.2% BSA, 0.25% diafiltered FBS, 25 mM HEPES, 2 mM L-GLUTAMAX™) in 96-well tissue culture plate and incubated at 37° C. overnight. The medium was replaced with 100 I1 of serum-free cell stimulation medium (DMEM/Ham's F-12, 0.5% BSA, 25 mM HEPES) and cells were incubated at 37° C. for 2 hr. One hour before stimulation, the medium was replaced with 50 I1 of serum-free cell stimulation medium. Concurrently, VEGF (50 ng/ml for hVEGF, 100 ng/ml for mVEGF and rVEGF) was pre-incubated with titrated amount of CKP or anti-VEGF in 50 μl of serum-free cell stimulation medium at 37° C. for 1 hour and added to the cells. The cells were stimulated for 15 min at 37 C and the medium is removed. The cells were lysed with 130 I1 of ice-cold cell lysis buffer (150 mM NaCl, 50 mM HEPES, 0.5% Triton-X 100, HALT protease and phosphatase inhibitor cocktail (ThermoFisher Scientific, Inc. catalog no. 78444), 5 mM EDTA). VEGF mediated Tyr phosphorylation of KDR was determined by ELISA-based assay. Briefly, MAXISORP™ 96 well plates (ThermoFisher Scientific, Inc. catalog no. 439454) were coated with 100 I1 of anti-gD antibody diluted in PBS (1 μg/ml) at 4° C. overnight and washed three times with washing buffer (PBS, 0.05% TWEEN®20, pH 7.4). The plates were blocked with 300 I1 of blocking buffer (PBS, 0.5% BSA) at room temperature for 1 hour followed by washing three times with washing buffer. The above KDR-CHO cell lysate (100 μl) was added to each well and incubated at room temperature for 2 hours. The plates were washed four times with washing buffer followed by incubation with 100 I1 of 0.5 μg/ml biotin-conjugated anti-phosphotyrosine (clone 4G10, Millipore catalog no. 16-103) in blocking buffer at room temperature for 2 hours. After washing four times, the plates were incubated with 100 I1 of HRP-conjugated streptavidin in blocking buffer at room temperature for 30 min. After washing four times, the plates were developed with 100 I1 of TMB substrate (BD Biosciences) at room temperature for 20-30 min and stopped by addition of 50 μl of H2SO4 solution. The optical density of each well was determined using a microplate reader set to 450 nm.

[1] = tested on: hVEGF-A mutants (Y21A, K48A, Q89A, F17A/M81A); assay: SPR binding assay, hVEGF-A mutants; design: species or system human; kd: unit not given here
Protocol: Depending on the format of the assay either a streptavidin sensor (SA) or a dextran-coated (CM5) sensor was utilized as described below.
For use with the SA sensor, VEGF-A was first biotinylated (no more than 2 biotin/VEGF-A) by incubating the protein with EZ-link NHS-PEG4-Biotin (Pierce) in a 1:1.5 molar ratio respectively, in PBS for 2 hours on ice. Reaction was then quenched by addition of 10 molar excess of Glycine pH 8.0 and the sample was buffer exchanged into PBS using an Amicon 0.5 mL 3000 MWCO ultra-centrifugal filters (EMD Millipore). The biotinylation state of the protein was verified by LC-MS analysis. Biotinylated VEGF-A was then captured on the surface until a resonance unit (RU) signal of about ˜400. For immobilization of VEGF-A on CM5 sensor, the surface was first activated with a mixture of N-ethyl-N′-(3-dimethylaminopropyl)carbodiimide hydrochloride and N-hydroxysuccinimide (EDC/NHS) according to the supplier instructions. VEGF-A was then diluted into coupling buffer (0.1 M Acetate Buffer, pH 5.0) and injected until the signal reached about ˜400 RU followed by a wash with 1 M ethanolamine pH 8.0 to quench remaining activated sites.
Following the capture step, a series of the peptide concentrations were prepared in HBS-EP buffer with matching DMSO concentrations to 0.1% and injected at a flow rate of […]. The resulting sensorgrams were then analyzed using a 1:1 binding model to obtain kinetic data and affinities using Scrubber 2.0 (BioLogic Software).
The binding interface of VEGF_CKP9.54.90 on VEGF-A overlaps with that of the natural receptors and G6.31 antibody (FIGS. 7 and 8). […] However, K48A mutation enhanced the binding of VEGF_CKP9.54.90 by ˜2-3 fold, a behavior that is similar to that observed with the G6.31 antibody (Fuh et al. (2006) J. Biol. Chem. 281, 6625-6631).

trypsin = assay: Trypsin protease activity, peptide substrate cleavage assay; format: biochemical; details: FIG. 3
[2] = VEGF_CKP9 Loop1/Loop5 affinity-matured variants, Table 24
[3] = IC50 against VEGF-A in in vitro and cellular assays, Table 25, improved potency compared to parent VEGF-CKP9

| Structure (SMILES) | IC50 (hVEGF-A; Cellular IC50, Table 28) [nM] | Kd ([1]; hVEGF-A mutant K48A) [nM] | ka ([1]; hVEGF-A mutant K48A) | kd ([1]; hVEGF-A mutant K48A) | Kd ([1]; hVEGF-A mutant Q89A) [nM] | ka ([1]; hVEGF-A mutant Q89A) | kd ([1]; hVEGF-A mutant Q89A) | Kd ([1]; hVEGF-A mutant Y21A) [nM] | ka ([1]; hVEGF-A mutant Y21A) | kd ([1]; hVEGF-A mutant Y21A) | inhibition of trypsin protease activity (trypsin) | S/N (signal to noise ratio as compared to BSA control) (hVEGF(8-109); Table 24) | ELISA (hVEGF(8-109); [2]) | IC50 (hVEGF-A; Cellular IC50, Table 25) [nM] | IC50 (hVEGF-A; [3]) [nM] | further results |
| --- | --- | --- | --- | --- | --- | --- | --- | --- | --- | --- | --- | --- | --- | --- | --- | --- |
| CC[C@H](C)[C@@H]1NC(=O)[C@H](CC(N)=O)NC(=O)[C@@H](NC(=O)CN)CSSC[C@@H](C(=O)N[C@H](C(=O)N[C@H]2CSSC[C@@H](C(=O)NCC(=O)O)NC(=O)[C@H](CO)NC(=O)[C@H](CCC(N)=O)NC(=O)[C@H](Cc3ccc(O)cc3)NC(=O)[C@H](Cc3ccc(O)cc3)NC(=O)[C@H](CCC(N)=O)NC2=O)C(C)C)NC(=O)CNC(=O)[C@H](C)NC(=O)[C@H](CC(C)C)NC(=O)[C@@H]2CSSC[C@H](NC(=O)CNC(=O)[C@H](Cc3c[nH]c4ccccc34)NC(=O)[C@H](Cc3ccccc3)NC(=O)[C@@H]3CCCN3C(=O)[C@H](CC(C)C)NC(=O)[C@H](CCSC)NC1=O)C(=O)NCC(=O)N[C@@H](CCCNC(=N)N)C(=O)N[C@@H](CC(=O)O)C(=O)N[C@@H](Cc1ccccc1)C(=O)N[C@@H](CCC(=O)O)C(=O)N2 [VEGF_CKP9.54.90] (H-GCNIMLPFWGCGRDFECLAGCVCQYYQSCG-OH; disulfide 2-21, 11-17, 23-29; N-terminus and C-terminus assumed) | 1.35 | 0.19 | 6.04 × 10^7 | 0.0116 | 8.8 | 1.71 × 10^7 | 0.1458 | 3.5 | 3.72 × 10^7 | 0.1202 | do not inhibit | – | – | – | – | S/N (signal to noise ratio as compared to BSA control) (hVEGF(8-109); Table 26): 29.5; ELISA (hVEGF(8-109); loop 2 variants based on 9.54 framework, Table 26): 2.3; IC50 (hVEGF-A; Cellular IC50 (nM), Table 36, loop 3/loop 4 variants): 1.35 nM; FOLD IMPROVEMENT RELATIVE TO VARIANT 9.54.90 (hVEGF-A; Table 36, from cellular IC50): 1; IC50 (hVEGF-A; Table 38, F8Y and/or unnatural amino acid variants, read-out: Cellular IC50): 1.35 nM; FOLD IMPROVEMENT RELATIVE TO VARIANT 9.54.90 (hVEGF-A; Table 38, from cellular IC50): 1; binding to VEGF-A mutant F17A/M81A ([1]; F17A/M81A, relative to wild type VEGF-A): reduced binding; enhancement of binding by K48A mutation ([1]; K48A, relative to wild type VEGF-A): 2-3 fold; binding to VEGF-A mutant Q89A ([1]; Q89A, relative to wild type VEGF-A): reduced binding; binding to VEGF-A mutant Y21A ([1]; Y21A, relative to wild type VEGF-A): reduced binding |
| CC[C@H](C)[C@@H]1NC(=O)[C@H](CC(N)=O)NC(=O)[C@@H](NC(=O)CN)CSSC[C@@H](C(=O)N[C@H](C(=O)N[C@H]2CSSC[C@@H](C(=O)NCC(=O)O)NC(=O)[C@H](CO)NC(=O)[C@H](CCC(N)=O)NC(=O)[C@H](Cc3ccc(O)cc3)NC(=O)[C@H](Cc3ccc(O)cc3)NC(=O)[C@H](CCC(N)=O)NC2=O)C(C)C)NC(=O)CNC(=O)[C@H](C)NC(=O)[C@H](CC(C)C)NC(=O)[C@@H]2CSSC[C@H](NC(=O)CNC(=O)[C@H](Cc3c[nH]c4ccccc34)NC(=O)[C@H](Cc3ccccc3)NC(=O)[C@@H]3CCCN3C(=O)[C@H](CC(C)C)NC(=O)[C@H](CCSC)NC1=O)C(=O)N[C@@H](CCCCN)C(=O)N[C@@H](CCC(N)=O)C(=O)N[C@@H](CC(=O)O)C(=O)N[C@@H](CO)C(=O)N[C@@H](CC(=O)O)C(=O)N2 [VEGF_CKP9.54] (H-GCNIMLPFWGCKQDSDCLAGCVCQYYQSCG-OH; disulfide 2-21, 11-17, 23-29 (inferred); N-terminus and C-terminus assumed) | 188 | 22 | 2.64 × 10^6 | 0.0587 | 1880 | 3.37 × 10^5 | 0.7932 | 317 | 6.63 × 10^5 | 0.2101 | do not inhibit | 28.4 | 2.1 | 188 | 100 to 200 | – |
| CSCC[C@@H]1NC(=O)[C@H](C(C)C)NC(=O)[C@H](CC(=O)O)NC(=O)[C@@H](NC(=O)CN)CSSC[C@@H](C(=O)N[C@H](C(=O)N[C@H]2CSSC[C@@H](C(=O)NCC(=O)O)NC(=O)[C@H](CO)NC(=O)[C@H](CC(N)=O)NC(=O)[C@H](Cc3ccc(O)cc3)NC(=O)[C@H](Cc3c[nH]c4ccccc34)NC(=O)[C@H](Cc3c[nH]cn3)NC2=O)C(C)C)NC(=O)CNC(=O)[C@H](C)NC(=O)[C@H](CC(C)C)NC(=O)[C@@H]2CSSC[C@H](NC(=O)CNC(=O)[C@H](Cc3c[nH]c4ccccc34)NC(=O)[C@H](Cc3ccc(O)cc3)NC(=O)[C@@H]3CCCN3C(=O)[C@H](CCC(N)=O)NC1=O)C(=O)N[C@@H](CCCCN)C(=O)N[C@@H](CCC(N)=O)C(=O)N[C@@H](CC(=O)O)C(=O)N[C@@H](CO)C(=O)N[C@@H](CC(=O)O)C(=O)N2 [VEGF_CKP9.63] (H-GCDVMQPYWGCKQDSDCLAGCVCHWYNSCG-OH; disulfide 2-21, 11-17, 23-29 (inferred); N-terminus and C-terminus assumed) | 140 | 28.4 | 5.72 × 10^5 | 0.02 | 2000 | 2.66 × 10^5 | 0.51 | 585 | 7.52 × 10^5 | 0.4814 | – | 29.7 | 2.0 | 140 | 100 to 200 | – |
